# Measurements reported in patent US8835422B2, “Substituted imidazoheterocycle derivatives” (Cara Therapeutics, Inc., priority 2008, dated 2014).
# pEC50: −log10 of the molar value. Like-named read-outs stand apart in the source and are kept apart here.
# What was measured:
# [1] = target: human CB1 receptor (hCB1) (Homo sapiens, UniProt P21554); experiment: cAMP assay (LANCE TR-FRET) in CHO-K1 cells stably expressing hCB1; assay type: cell-based
# Description: (§1) The ability of compounds to act as agonists or inverse agonists at human CB2 and CB1 receptors (hCB2, hCB1, respectively) and at the rat CB2 receptor (rCB2) was determined by measuring changes in intracellular cAMP levels. Chinese Hamster Ovary (CHO-K1) cell lines stably expressing hCB2 (Genebank: X74328) or hCB1 (Genebank: X54937) were purchased from Euroscreen (Gosselies, Belgium). The rat CB2 receptor was expressed from genomic DNA (provided by M. Abood, California Pacific Medical Center) in CHO-K1 cells from expression plasmid vector, pcDNA3.1.
# (§2) Receptor mediated responses were determined by measuring changes in intracellular cAMP using LANCE cAMP detection kit (cat #AD0264, Perkin Elmer, Wellesley, Mass.) based on time-resolved fluorescence resonance energy transfer (TR-FRET).
# (§3) On the day of the experiment, cells were spun at low speed for 5 min at room temperature. […] Cell clumps were removed by filtering through cell strainer 40 μm (BD Falcon, Discovery Labware, Bedford, Mass.) and diluted to 2×10^5 cells/mL. Antibody supplied with the LANCE cAMP immunoassay kit was then added according to the manufacturer's instructions. An aliquot of cells was taken for un-induced controls. […] Cells were then incubated for 30 min at room temperature prior to adding to Proxiplates containing test compounds (final DMSO concentration was less than 0.5%) with a Multidrop bulk dispenser, followed by a sixty minute incubation at room temperature. The response was stopped by addition of the detection mix supplied with the LANCE kit. The reagents were allowed to equilibrate for three hours prior to reading on an Envision multi-mode detector (Perkin-Elmer). TR-FRET was measured using a 330-380 nm excitation filter, a 665 nm emission filter, dichroic mirror 380 nm and Z=1 mm. Cyclic AMP concentrations in each well were back-calculated from a cAMP standard curve run concurrently during each assay. Each plate contained 16 wells of forskolin stimulated cells and 16 wells of forskolin plus CP55,940-treated cells. […] Concentrations of cAMP were expressed as a percent of the difference of these two groups of wells.
# [2] = target: T1, human CB2 receptor (hCB2) (Homo sapiens, UniProt P34972); experiment: cAMP assay (LANCE TR-FRET) in CHO-K1 cells stably expressing hCB2; assay type: cell-based
# T1 construct: host or cells: CHO-K1
# T1 sequence (P34972 whole entry): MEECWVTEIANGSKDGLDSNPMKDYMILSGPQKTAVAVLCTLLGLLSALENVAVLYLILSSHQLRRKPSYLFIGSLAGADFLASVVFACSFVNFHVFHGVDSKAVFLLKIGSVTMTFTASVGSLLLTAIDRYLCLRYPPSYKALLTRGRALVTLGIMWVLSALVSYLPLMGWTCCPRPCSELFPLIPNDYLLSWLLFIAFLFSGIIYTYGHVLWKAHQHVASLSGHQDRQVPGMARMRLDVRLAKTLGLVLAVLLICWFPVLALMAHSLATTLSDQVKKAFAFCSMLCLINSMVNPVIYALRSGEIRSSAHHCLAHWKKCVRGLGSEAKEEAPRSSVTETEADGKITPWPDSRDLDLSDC
# Description: as §1, §2, §3
# [3] = tested on: acetic acid-induced writhing; experiment: Inhibition of acetic acid-induced writhing in mice; assay type: in vivo, Male ICR mice; conditions: dose of 10 mg/kg, subcutaneous, 30 min before acetic acid; writhes over 15 min
# Text: 12: 525-562; Ramabadran and Bansinath (1986) Pharm. Res. 3: 263-270]. Intraperitoneal administration of dilute acetic acid solution causes a writhing behavior in mice. A writhe is defined as a contraction of the abdominal muscles accompanied by an extension of the forelimbs and elongation of the body. The number of writhes observed in the presence and absence of test compounds is counted to determine the analgesic activity of the compounds.
# Male ICR mice, 20-40 grams in weight, were weighed and placed in individual observation chambers (usually a 4000 ml beaker) with a fine layer of rodent bedding at the bottom. To determine the activity and potency of test compounds, different doses of the compound solution or vehicle were injected subcutaneously in the back of the neck 30 minutes prior to administration of acetic acid solution. After administration of the compound or vehicle control, mice were returned to their individual observation chambers awaiting the intraperitoneal administration of acetic acid solution. Thirty minutes later, 10 ml/kg of a 0.6% (v/v) acetic acid solution was then injected into the right lower quadrant of the abdomen. Immediately after the injection, the mouse was returned to its observation chamber and the recording of the number of writhes is begun immediately. The number of writhes was counted over a 15-min period starting from the time of acetic acid injection. Raw data were analyzed using a one-way ANOVA followed by Dunnett's post-tests.
# For dose-response analysis, raw data were converted to % maximum possible effect (% MPE) using the formula: % MPE=((Wc−Wv)/(0−Wv))×100, where Wc is the number of writhes in compound-treated mice and Wv is the mean number of writhes in vehicle-treated mice. The dose which elicited 50% attenuation of hypersensitivity (ED50) was determined using linear regression analysis. (Tallarida & Murray, 1987).
# [4] = target: T2, rat CB2 receptor (rCB2) (Rattus norvegicus, UniProt Q9QZN9); experiment: cAMP assay (LANCE TR-FRET) in CHO-K1 cells expressing rat CB2; assay type: cell-based
# T2 construct: expressed in transfected cells; host or cells: CHO-K1 (plasmid pcDNA3.1)
# T2 sequence (Q9QZN9 1-360): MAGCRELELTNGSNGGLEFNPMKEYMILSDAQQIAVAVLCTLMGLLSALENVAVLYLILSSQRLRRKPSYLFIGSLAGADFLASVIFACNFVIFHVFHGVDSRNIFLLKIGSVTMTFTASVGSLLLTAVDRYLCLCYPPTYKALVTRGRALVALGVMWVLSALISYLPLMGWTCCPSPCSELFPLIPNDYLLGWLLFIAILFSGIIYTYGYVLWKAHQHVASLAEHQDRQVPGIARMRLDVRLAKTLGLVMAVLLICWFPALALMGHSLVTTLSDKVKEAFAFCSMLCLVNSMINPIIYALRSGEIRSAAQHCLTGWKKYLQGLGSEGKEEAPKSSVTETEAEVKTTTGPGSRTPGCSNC
# Description: as §1, §2, §3
# [5] = tested on: CFA-induced thermal hyperalgesia; experiment: CFA model of acute inflammation: thermal hyperalgesia (paw withdrawal latency); assay type: in vivo, Male Sprague-Dawley rats; conditions: for Attenuation (sec.) of CFA-induced thermal hyperalgesia (mean PWL ± SEM): p.o., vehicle 4.3 ± 0.2, naive 10.3 ± 0.3
# Description: The anti-hyperalgesic effects of test compounds in the Complete Freund's Adjuvant (CFA) model of inflammatory pain were examined as described below. Male Sprague-Dawley rats (Hsd:Sprague-Dawley®™SD®™, Harlan, Indianapolis, Ind.) weighing about 200 grams, were housed three per cage. Test compound and ibuprofen (Sigma, cat 11892) were each prepared in a mixture of 1:1:18 ethanol:cremophor EL:water. Groups of six animals were subjected to local inflammation induced by 0.1 mL CFA (Sigma-Aldrich, cat F5881, Mycobacterium tuberculosis 1 mg/ml) injected subcutaneously into the plantar surface of the left paw.
# Assessment of thermal hyperalgesia: Paw withdrawal latencies (PWLs) in response to a noxious thermal stimulus (Model #37370, Ugo Basile, Cat #55370) were obtained before and 24 hours after intraplantar administration of CFA. Rats were placed in plexi-glass chambers (10×21×14 cm) on top of a glass platform (un-heated) and allowed to acclimate for approximately 15 min before testing. Each rat received 3 trials separated by approx. 3 min each and these scores were averaged to provide the final PWL. The mean and standard error of the mean (SEM) were determined for the injured paw in each treatment group. Significant reductions in PWLs (i.e., increased sensitivity to a noxious stimulus) were interpreted as the presence of thermal hyperalgesia. To avoid tissue damage, a cut-off latency of 20 seconds was employed. These behavioral assessments were carried-out under blinded conditions (i.e., compound preparation and animal dosing was performed by someone other than the person carrying out the behavioral assessments). Ibuprofen (100 mg/kg, p.o.) was used as the positive control. The mean and SEM were determined for the injured and normal paws for each treatment group. CFA produces a significant increase in sensitivity to noxious thermal stimuli as PWLs decreased from a pre-CFA baseline of 10.3±0.3 sec to a value of 4.3±0.2 sec (p≦0.05, paired t-test). […] Compound 1-10 at a dose of 3 mg/kg produced a significant increase in PWLs (p<0.01, Bonferroni post-test) that persisted for at least 4 hours post-dosing.
# human CB1 receptor (hCB1), sequence (P21554 whole entry): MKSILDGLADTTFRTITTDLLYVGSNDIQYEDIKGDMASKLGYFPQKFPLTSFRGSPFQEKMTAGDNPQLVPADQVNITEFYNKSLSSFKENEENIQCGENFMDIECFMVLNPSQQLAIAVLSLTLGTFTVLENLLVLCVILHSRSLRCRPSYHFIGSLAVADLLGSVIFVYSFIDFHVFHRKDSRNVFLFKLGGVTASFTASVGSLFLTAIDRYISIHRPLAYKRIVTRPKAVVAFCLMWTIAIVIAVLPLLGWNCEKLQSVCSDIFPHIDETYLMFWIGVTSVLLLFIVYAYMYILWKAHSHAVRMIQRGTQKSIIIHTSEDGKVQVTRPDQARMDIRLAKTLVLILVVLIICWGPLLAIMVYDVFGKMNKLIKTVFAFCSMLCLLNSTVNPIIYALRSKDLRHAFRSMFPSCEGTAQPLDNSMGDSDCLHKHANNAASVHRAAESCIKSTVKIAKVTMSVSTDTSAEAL
SMILES,pEC50 [1],pEC50 [2],pEC50 [4],further results
"CNC(=O)[C@@H](NC(=O)c1nc(-c2ccc(F)c(F)c2)n2c1CCCCC2)C(C)(C)C [Compound 1-2, (S)-3-(3,4-difluorophenyl)-N-(3,3-dimethyl-1-(methylamino)-1-oxobutan-2-yl)-6,7,8,9-tetrahydro-5H-imidazo[1,5-a]azepine-1-carboxamide]",8.00 to 10.00,8.00 to 10.00,,"% maximum possible effect (% MPE), writhing [3]: greater than fifty"
"CNC(=O)[C@@H](NC(=O)c1nc(-c2ccccc2)n2c1CCCCC2)C(C)(C)C [Compound 1-1, (S)—N-(3,3-dimethyl-1-(methylamino)-1-oxobutan-2-yl)-3-phenyl-6,7,8,9-tetrahydro-5H-imidazo[1,5-a]azepine-1-carboxamide]",7.00 to 8.00,8.00 to 10.00,,"% maximum possible effect (% MPE), writhing [3]: greater than fifty"
"CNC(=O)[C@@H](NC(=O)c1nc(-c2ccccc2)n2c1CCN(S(=O)(=O)c1ccc(F)cc1)CC2)C(C)(C)C [Compound 3-15, (S)-N-(3,3-dimethyl-1-(methylamino)-1-oxobutan-2-yl)-7-(4-fluorophenyl-sulfonyl)-3-phenyl-6,7,8,9-tetrahydro-5H-imidazo[1,5-d][1,4]diazepine-1-carboxamide]",,,8.00 to 10.00,
"CNC(=O)[C@@H](NC(=O)c1nc(-c2ccccc2)n2c1CCN(C)CC2)C(C)(C)C [Compound 3-9, (S)-N-(3,3-dimcthyl-1-(methylamino)-1-oxobutan-2-yl)-7-methyl-3-phenyl-6,7,8,9-tetrahydro-5H-imidazo[1,5-d][1,4]diazepine-1-carboxamide]",< 5.00,< 5.00,< 5.00,
"Cc1nnc(-c2nc(-c3ccc(F)c(F)c3)n3c2CCCCC3)o1 [Compound 4-1, 2-(3-(3,4-difluorophenyl)-6,7,8,9-tetrahydro-5H-imidazo[1,5-a]azepin-1-yl)-5-methyl-1,3,4-oxadiazole]",,,,"pEC50 ([4]; above the detectable range, read-out: EC50 rat CB2 receptor): < 5.00; pEC50 ([2]; text statement b297, read-out: EC50 human CB2 receptor): < 5.00"
"CNC(=O)[C@@H](NC(=O)c1nc(-c2ccccc2)n2c1CCN(CC1CC1)CC2)C(C)(C)C [Compound 3-11, (S)-7-(cyclopropylmethyl)-N-(3,3-dimethyl-1-(methylamino)-1-oxobutan-2-yl)-3-phenyl-6,7,8,9-tetrahydro-5H-imidazo[1,5-d][1,4]diazepine-1-carboxamidc]",< 5.00,< 5.00,8.00 to 10.00,
"CC(C)Cc1ccc(C(C)C(=O)O)cc1 (stereo not drawn) [Ibuprofen, reference compound]",,,,"Attenuation (sec.) of CFA-induced thermal hyperalgesia (mean PWL ± SEM) ([5]; 100 mg/kg, 1 hr): 7.6 ± 0.7 s; Attenuation (sec.) of CFA-induced thermal hyperalgesia (mean PWL ± SEM) ([5]; 100 mg/kg, 4 hr): 7.7 ± 0.6 s"
"CCS(=O)(=O)N1CCc2c(C(=O)N[C@H](C(=O)NC)C(C)(C)C)nc(-c3ccccc3)n2CC1 [Compound 3-14, (S)-N-(3,3-dimethyl-1-(methylamino)-1-oxobutan-2-yl)-7-(ethylsulfonyl)-3-phenyl-6,7,8,9-tetrahydro-5H-imidazo[1,5-d][1,4]diazepine-1-carboxamide]",< 5.00,< 5.00,7.00 to 8.00,
"CNC(=O)[C@@H](NC(=O)c1nc(-c2ccccc2)n2c1CCN(C(C)=O)CC2)C(C)(C)C [Compound 3-12, (S)-7-acetyl-N-(3,3-dimethyl-1-(methylamino)-1-oxobutan-2-yl)-3-phenyl-6,7,8,9-tetrahydro-5H-imidazo[1,5-d][1,4]diazepine-1-carboxamide]",< 5.00,< 5.00,< 5.00,
"CNC(=O)[C@@H](NC(=O)c1nc(-c2ccc(F)c(F)c2)n2c1CCOCC2)C(C)(C)C [Compound 1-9, (S)-3-(3,4-difluorophenyl)-N-(3,3-dimethyl-1-(methyl-amino)-1-oxobutan-2-yl)-5,6,8,9-tetrahydroimidazo[1,5-d][1,4]oxazepine-1-carboxamide]",7.00 to 8.00,8.00 to 10.00,,"% maximum possible effect (% MPE), writhing [3]: greater than fifty"
"CNC(=O)[C@@H](NC(=O)c1nc(-c2ccccc2)n2c1CCN(CC(C)C)CC2)C(C)(C)C [Compound 3-10, (S)-N-(3,3-dimethyl-1-(methylamino)-1-oxobutan-2-yl)-7-isobutyl-3-phenyl-6,7,8,9-tetrahydro-5H-imidazo[1,5-d][1,4]diazepine-1-carboxamide]",,,7.00 to 8.00,
"CNC(=O)[C@@H](NC(=O)c1nc(-c2ccc(F)c(F)c2)n2c1COCCC2)C(C)(C)C [Compound 1-10, (S)-3-(3,4-difluorophenyl)-N-(3,3-dimethyl-1-(methylamino)-1-oxobutan-2-yl)-5,6,7,9-tetrahydroimidazo[5,1-c][1,4]oxazepine-1-carboxamide]",7.00 to 8.00,7.00 to 8.00,,"Persistence of significant increase in PWLs post-dosing ([5]; 3 mg/kg p.o., p<0.01, Bonferroni post-test): at least 4 hours; Attenuation (sec.) of CFA-induced thermal hyperalgesia (mean PWL ± SEM) ([5]; 3 mg/kg, 1 hr): 6.5 ± 0.5 s; Attenuation (sec.) of CFA-induced thermal hyperalgesia (mean PWL ± SEM) ([5]; 3 mg/kg, 4 hr): 6.3 ± 0.3 s; Reversal of CFA-induced thermal hyperalgesia ([5]; oral (p.o.) administration): significant reversal"
